According to patent US8318730B2, “Fused hetrocyclic compounds” (Synta Pharmaceuticals Corporation, priority 2003, dated 2012):

Tested on: IL-12 production
Assay: In vitro assay of Example 12: inhibition of IL-12 production in IFNγ/LPS- or IFNγ/SAC-stimulated cells, ELISA
Format: cell-based, human
From the text: The biological activities of a compound can be evaluated by a number of cell-based assays. One of such assays can be conducted using cells from human peripheral blood mononuclear cells (PBMC) or human monocytic cell line (THP-1). The cells are stimulated with a combination of human interferon-γ (IFNγ) and lipopolysaccharide or a combination of IFNγ and Staphylococcus aureus Cowan I in the presence of a test compound. The level of inhibition of IL-12 production can be measured by determining the amount of p70 by using a sandwich ELISA assay with anti-human IL-12 antibodies. IC50 of the test compound can then be determined. Specifically, PBMC or THP-1 cells are incubated with the test compound. Cell viability was assessed using the bioreduction of MTS [3-(4,5-dimethylthiazol-2-yl)-5-(3-carboxymethoxyphenyl)-2-(4-sulfophenyl)-2H-tetrazolium] (Promega, Madison, Wis.).
Staphylococcus aureus Cowan I (SAC) is obtained from Calbiochem (La Jolla, Calif.), and lipopolysaccharide (LPS, Serratia marscencens) is obtained from Sigma (St. Louis, Mo.). Human and mouse recombinant IFNγ are purchased from Boehringer Mannheim (Mannheim, Germany) and Pharmingen (San Diego, Calif.), respectively.
Human PBMC are isolated by centrifugation using Ficoll-Paque (Pharmacia Biotech, Uppsala, Sweden) and prepared in RPMI medium supplemented with 10% fetal calf serum (FCS), 100 U/mL penicillin, and 100 μg/mL streptomycin. PBMC are plated in wells of a 96-well plate at a concentration of 5×10^5 cells/well, and primed by adding IFNγ (30 U/mL) for 22 h and stimulated by adding LPS (1 μg/mL), or by adding IFNγ (100 U/mL) and then stimulated by adding SAC (0.01%). A test quinazoline compound is dissolved in DMSO, and added to wells of the 96-well plate. The final DMSO concentration is adjusted to 0.25% in all cultures, including the compound-free control. Human THP-1 cells are plated in wells, primed by adding IFNγ (100 U/mL) for 22 h and stimulated by adding SAC (0.025%) in the presence of different concentrations of the quinazoline compound. Cell-free supernatants are taken 18 h later for measurement of cytokines. Cell viability is assessed using the bioreduction of MTS. Cell survival is estimated by determining the ratio of the absorbance in compound-treated groups versus compound-free control.
The supernatant is assayed for the amount of IL-12p40, IL-12p70, or IL-10 by using a sandwich ELISA with anti-human antibodies, i.e., a Human IL-12 p40 ELISA kit from R&D Systems (Berkeley, Calif.), and a Human IL-12 p70 or IL-10 ELISA kit from Endogen (Cambridge, Mass.). Assays are based on the manufacturer's instructions.
The biological activities of quinazoline compounds are tested on human PBMC or THP-1 cells.

[1] = Homo sapiens, assay of Example 12, if more than one assay was performed, only the most active IC50 result is reported
[2] = measured in an assay according to Example 12, human PBMC or THP-1 cells

Row | IC50 [1] [nM] | Compound | also measured
1 | – | 2-Methyl-1-(4-morpholin-4-yl-6-m-tolyl-quinazolin-2-yloxy)-propan-2-ol [Compound 17] | IC50 (assay of Example 12, if more than one assay was performed, only the most active IC50 result is reported): 370 nM
2 | 107 | COc1ccc(CCOc2nc(N3CCOCC3)c3cc(-c4ccc(C)c(C)c4)ccc3n2)cc1OC [Compound 26, 2-[2-(3,4-Dimethoxy-phenyl)-ethoxy]-6-(3,4-dimethyl-phenyl)-4-morpholin-4-yl-quinazoline] | –
3 | 3040 | COc1ccc(CCOc2nc(N3CCOCC3)c3cc(-c4ccc(C)s4)ccc3n2)cc1OC [Compound 22, 2-[2-(3,4-Dimethoxy-phenyl)-ethoxy]-6-(5-methyl-thiophen-2-yl)-4-morpholin-4-yl-quinazoline] | –
4 | > 10000 | Cc1ccc(-c2cnc3nc(OCCN4CCOCC4)nc(N4CCOCC4)c3c2)cc1C [Compound 44, 6-(3,4-Dimethyl-phenyl)-4-morpholin-4-yl-2-(2-morpholin-4-yl-ethoxy)-pyrido[2,3-d]pyrimidine] | –
5 | 347 | COc1ccc(CCOc2nc(N3CCOCC3)c3cc(Oc4ccccc4Cl)ccc3n2)cc1OC [Compound 34, 6-(2-Chloro-phenoxy)-2-[2-(3,4-dimethoxy-phenyl)-ethoxy]-4-morpholin-4-yl-quinazoline] | –
6 | 419 | COc1ccc(-c2ccc3nc(OCCc4ccc(OC)c(OC)c4)nc(N4CCOCC4)c3c2)cc1 [Compound 31, 2-[2-(3,4-Dimethoxy-phenyl)-ethoxy]-6-(4-methoxy-phenyl)-4-morpholin-4-yl-quinazoline] | –
7 | 2500 | Cc1ccc(-c2ccc3nc(OCCN4CCOCC4)nc(N4CCOCC4)c3c2)cc1 [Compound 37, 4-Morpholin-4-yl-2-(2-morpholin-4-yl-ethoxy)-6-p-tolyl-quinazoline] | –
8 | 9900 | COc1ccc(CCOc2nc(N3CCOCC3)c3cc(Oc4cccc(Cl)c4)ccc3n2)cc1OC [Compound 35, 6-(3-Chloro-phenoxy)-2-[2-(3,4-dimethoxy-phenyl)-ethoxy]-4-morpholin-4-yl-quinazoline] | –
9 | > 1000 | Cc1ccc(Oc2cnc3nc(OCCN4CCOCC4)nc(N4CCOCC4)c3c2)cc1 [Compound 47, 4-Morpholin-4-yl-2-(2-morpholin-4-yl-ethoxy)-6-p-tolyloxy-pyrido[2,3-d]pyrimidine] | –
10 | 1400 | FC(F)(F)c1cccc(-c2cnc3nc(OCCN4CCOCC4)nc(N4CCOCC4)c3c2)c1 [Compound 43, 4-Morpholin-4-yl-2-(2-morpholin-4-yl-ethoxy)-6-(3-trifluoromethyl-phenyl)-pyrido[2,3-d]pyrimidine] | –
11 | > 10000 | Cc1cccc(-c2cnc3nc(OCCN4CCOCC4)nc(N4CCOCC4)c3c2)c1 [Compound 42, 4-Morpholin-4-yl-2-(2-morpholin-4-yl-ethoxy)-6-m-tolyl-pyrido[2,3-d]pyrimidine] | –
12 | – | COc1cc2nc(N3CCOCC3)nc(N/N=C/c3cccc(C)c3)c2cc1OCCOc1ccccc1 [Compound 9, N-[7-Methoxy-2-morpholin-4-yl-6-(2-phenoxy-ethoxy)-quinazolin-4-yl]-N′-(3-methyl-benzylidene)-hydrazine] | IC50 [2]: 800 nM
13 | 1820 | COCCOc1nc(N2CCOCC2)c2cc(-c3cccc(C)c3)ccc2n1 [Compound 13, 2-(2-Methoxy-ethoxy)-4-morpholin-4-yl-6-m-tolyl-quinazoline] | –
14 | – | COc1cc2nc(N3CCOCC3)nc(Nc3ccc4[nH]c(C)c(C)c4c3)c2cc1OC [Compound 2, (6,7-Dimethoxy-2-morpholin-4-yl-quinazolin-4-yl)-(2,3-dimethyl-1H-indol-5-yl)-amine] | IC50 [2]: 109 nM
15 | 3000 | c1ccc(Nc2ccc3nc(OCCN4CCOCC4)nc(N4CCOCC4)c3c2)cc1 [Compound 14, [4-Morpholin-4-yl-2-(2-morpholin-4-yl-ethoxy)-quinazolin-6-yl]-phenyl-amine] | –
16 | – | COc1cc2nc(N3CCOCC3)nc(NN=Cc3cccc(C)c3)c2cc1OC [Compound 1, N-(6,7-Dimethoxy-2-morpholin-4-yl-quinazolin-4-yl)-N′-(3-methyl-benzylidene)-hydrazine] | IC50 [2]: 98.8 nM
17 | > 1000 | c1ccc(Oc2cnc3nc(OCCN4CCOCC4)nc(N4CCOCC4)c3c2)cc1 [Compound 48, 4-Morpholin-4-yl-2-(2-morpholin-4-yl-ethoxy)-6-phenoxy-pyrido[2,3-d]pyrimidine] | –

Row | IC50 [1] [nM] | Compound | also measured
18 | 189 | COc1ccc(CCOc2nc(N3CCOCC3)c3cc(-c4cccc(C)c4)ccc3n2)cc1OC [Compound 15, 2-[2-(3,4-Dimethoxy-phenyl)-ethoxy]-4-morpholin-4-yl-6-m-tolyl-quinazoline] | –
19 | > 10000 | COc1ccc(CCOc2nc(N3CCOCC3)c3cc(Nc4ccccc4C)ccc3n2)cc1OC [Compound 41, {2-[2-(3,4-Dimethoxy-phenyl)-ethoxy]-4-morpholin-4-yl-quinazolin-6-yl}-o-tolyl-amine] | –
20 | > 10000 | COc1ccc(CCOc2nc(N3CCOCC3)c3cc(Nc4ccc(C)cc4)ccc3n2)cc1OC [Compound 40, {2-[2-(3,4-Dimethoxy-phenyl)-ethoxy]-4-morpholin-4-yl-quinazolin-6-yl}-p-tolyl-amine] | –
21 | 59 | COc1ccc(CCOc2nc(N3CCOCC3)c3cc(-c4ccc(C)cc4)ccc3n2)cc1OC [Compound 21, 2-[2-(3,4-Dimethoxy-phenyl)-ethoxy]-4-morpholin-4-yl-6-p-tolyl-quinazoline] | –
22 | 770 | c1ccc2oc(-c3cnc4nc(OCCN5CCOCC5)nc(N5CCOCC5)c4c3)cc2c1 [Compound 45, 6-Benzofuran-2-yl-4-morpholin-4-yl-2-(2-morpholin-4-yl-ethoxy)-pyrido[2,3-d]pyrimidine] | –
23 | 64 | COc1ccc(CCOc2nc(N3CCOCC3)c3cc(-c4cc5ccccc5o4)ccc3n2)cc1OC [Compound 28, 6-Benzofuran-2-yl-2-[2-(3,4-dimethoxy-phenyl)-ethoxy]-4-morpholin-4-yl-quinazoline] | –
24 | 470 | COc1ccc(CCOc2nc(N3CCOCC3)c3cc(-c4cc(C)cc(C)c4)ccc3n2)cc1OC [Compound 27, 2-[2-(3,4-Dimethoxy-phenyl)-ethoxy]-6-(3,5-dimethyl-phenyl)-4-morpholin-4-yl-quinazoline] | –
25 | 6910 | COc1ccc(CCOc2nc(N3CCOCC3)c3cc(-c4ccccc4)ccc3n2)cc1OC [Compound 19, 2-[2-(3,4-Dimethoxy-phenyl)-ethoxy]-4-morpholin-4-yl-6-phenyl-quinazoline] | –
26 | 1430 | COc1ccc(CCOc2nc(N3CCOCC3)c3cc(-c4cccc(C(N)=O)c4)ccc3n2)cc1OC [Compound 24, 3-{2-[2-(3,4-Dimethoxy-phenyl)-ethoxy]-4-morpholin-4-yl-quinazolin-6-yl}-benzamide] | –
27 | – | Cc1[nH]c2ccc(Nc3nc(N4CCOCC4)nc4ccc([N+](=O)[O-])cc34)cc2c1C [Compound 10, (2,3-Dimethyl-1H-indol-5-yl)-(2-morpholin-4-yl-6-nitro-quinazolin-4-yl)-amine] | IC50 [2]: 5000 nM
28 | > 10000 | Fc1ccc(-c2ccc3nc(OCCN4CCOCC4)nc(N4CCOCC4)c3c2)cc1 [Compound 38, 6-(4-Fluoro-phenyl)-4-morpholin-4-yl-2-(2-morpholin-4-yl-ethoxy)-quinazoline] | –
29 | > 10000 | COc1ccc(CCOc2nc(N3CCOCC3)c3cc(-c4ccc(F)cc4)ccc3n2)cc1OC [Compound 33, 6-(4-Fluoro-phenyl)-2-[2-(3,4-dimethoxy-phenyl)-ethoxy]-4-morpholin-4-yl-quinazoline] | –
30 | 162 | Cc1cccc(-c2ccc3nc(OCCO)nc(N4CCOCC4)c3c2)c1 [Compound 18, 2-(4-Morpholin-4-yl-6-m-tolyl-quinazolin-2-yloxy)-ethanol] | –
31 | 400 | COc1cccc(-c2ccc3nc(OCCc4ccc(OC)c(OC)c4)nc(N4CCOCC4)c3c2)c1 [Compound 25, 2-[2-(3,4-Dimethoxy-phenyl)-ethoxy]-6-(3-methoxy-phenyl)-4-morpholin-4-yl-quinazoline] | –
32 | > 1000 | Cc1ccccc1Oc1cnc2nc(OCCN3CCOCC3)nc(N3CCOCC3)c2c1 [Compound 46, 4-Morpholin-4-yl-2-(2-morpholin-4-yl-ethoxy)-6-o-tolyloxy-pyrido[2,3-d]pyrimidine] | –
33 | – | Cc1cccc(/C=N/Nc2nc(N3CCOCC3)nc3cc(Cl)ccc23)c1 [Compound 8, N-(7-Chloro-2-morpholin-4-yl-quinazolin-4-yl)-N′-(3-methyl-benzylidene)-hydrazine] | IC50 [2]: 298 nM
